From patent publication EP4786487A1, “PEPTIDE” (Peptidream Inc, priority 2023, dated 2025) come the findings set out here.

In data set [1] the target is T1, Myostatin (Homo sapiens, UniProt O14793).
T1 construct: active myostatin (also called mature myostatin) is a homodimer consisting of two C-terminal growth factor domains; purchased R&D systems 788-G8/CF
T1 sequence (O14793 267-375): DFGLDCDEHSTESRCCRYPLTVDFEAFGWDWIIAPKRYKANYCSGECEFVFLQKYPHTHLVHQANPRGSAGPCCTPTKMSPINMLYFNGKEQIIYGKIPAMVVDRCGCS
In words: Reporter gene assay for myostatin signaling in HepG2 cell line, Evaluation Procedure (1), myostatin inhibition. Type of data set: cell-based. In short, it runs like this:
(§1)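 IC50 derived from One-Glo luciferase luminescence after 20–24 h at 37 °C. Peptides titrated 4-fold at 0.006–100 nmol/L against myostatin or 0.12–2000 nmol/L against GDF-11 in HepG2 cells carrying a transfected CAGA12-luciferase reporter, kept in 0.1% BSA EMEM.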
(A reporter such as luciferase makes a cellular process visible.)

Data set [2] has as its system Myostatin. Described as above. The data set is classed as cell-based. Particulars: Method A; GDF-11 IC50 versus Myostatin IC50. In short, it runs like this:
as §1

Data set [3] deals with T2, GDF-11 (Homo sapiens, UniProt O95390).
T2 construct: purchased R&D systems 1958-GD-G8/CF
T2 sequence (O95390 299-407): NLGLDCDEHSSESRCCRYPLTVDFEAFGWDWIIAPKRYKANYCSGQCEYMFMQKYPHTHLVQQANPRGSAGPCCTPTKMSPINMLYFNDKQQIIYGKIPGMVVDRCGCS
Briefly: Reporter gene assay for myostatin signaling in HepG2 cell line, Evaluation Procedure (1), GDF-11 inhibition. The data set is classed as cell-based. In short, it runs like this: as §1

Data set [4] can be described thus: Distribution of peptide in skeletal muscle (plasma and quadriceps concentrations). The data set is classed as in vivo. Particulars: mouse, sc, 10 mg/kg subcutaneously, male CD1 mice; for level at 24 h: 24 hr after administration; for level at 48 h: 48 hr after administration; for level at 72 h: 72 hr after administration. The method, then:
The peptide Myostatin_99_Variant_07 (SEQ ID NO: 3), synthesized according to Example 1, was administered subcutaneously at 10 mg/kg to male 6-8-week-old CD1 mice. Plasma and quadriceps concentrations were measured at 24, 48, and 72 hours after administration. […]
Note that plasma was separated from blood by centrifugation; 25% homogenate of tissue was prepared and deproteinized with 5% formic acid-containing acetonitrile; and the drug concentrations were determined using an LC/MS/MS system (LCMS-8060, Shimadzu Corporation).

In the next data set the test system is B10 mdx model mice. In words: Improvement of muscle strength and inhibition of muscle necrosis in B10 mdx mice. Type of data set: in vivo, C57BL/10-mdx/Jcl mice. Particulars: 10 mg/kg subcutaneous. The method, then:
(§2) In this Example, the effect of the peptide Myostatin_99_Variant_07 (SEQ ID NO: 3), synthesized according to Example 1, on improvement of muscle strength in DMD model mice was evaluated using B10 mdx model mice (NPL 17).
(§3) To five-week-old male C57BL/10-mdx/Jcl (CLEA Japan, Inc.) mice, the peptide or solvent control (Vehicle) PBS was subcutaneously administered as shown in Table 11 three times a week or every day for 5 weeks.
(§4) Using a smart-type grip strength meter for rats and mice (MK-380V; Muromachi Kikai Co., Ltd.), forelimb and hindlimb grip strength measurements and body weight measurements were performed on the day of completion of the acclimation period (grouping day), and on Days 7, 14, 21, 27, and 33. The measurements were conducted with individual identification numbers blinded so that the examiner was unaware of the test conditions of the mice. The grip strength was measured seven times consecutively, and the average of five points, excluding the two points: the highest and lowest values, was used as individual data. The body weight was weighed using an electronic balance.
(§5) Serum creatine kinase (CK) concentrations (mean ± SEM) on Day 35, when the animals were euthanized, were also examined.

Data set [5] can be described thus: Muscle strength, body weight and serum creatine kinase in B10 mdx mice. Type of data set: in vivo, C57BL/10-mdx/Jcl mice. The conditions noted are these: 10 mg/kg subcutaneous. The protocol:
as §2, §3, §4, §5

The subject of data set [6] is GDF-11. In words: Reporter gene assay for myostatin signaling in HepG2 cell line, Evaluation Procedure (1), GDF-11 inhibition. The data set is classed as cell-based. Particulars: GDF-11 IC50 relative to myostatin IC50, HepG2. In short, it runs like this: as §1
Setting [7] is: plasma, read-out: Plasma concentration.
The mark [8] stands for this setting: quadriceps muscle, quadriceps, read-out: Intramuscular concentration.

Where two headings read alike, the source gives them in different places. Starred links: 1 amine or outer side, 2 acyl side, 3 side chain; linkers in the order of their positions; H or OH if unused. Positions of bridges follow the written chain, without caps; N, C: chain ends. Non-standard residues stand in square brackets, D forms with d. Residues, ends and D or L forms follow the SMILES beside them. Trp(6-OH,1-(4-HO2C-Ph)) = N[C@@H](Cc1cn(-c2ccc(C(=O)O)cc2)c2cc(O)ccc12)C(=O)O; Phe(3-OCH2COOH) = N[C@@H](Cc1cccc(OCC(=O)O)c1)C(=O)O; N(CH2CH2CO)Gly = O=C(CN(CCC(=O)[*:3])[*:1])[*:2]; Phe(4-COOH) = N[C@@H](Cc1ccc(C(=O)O)cc1)C(=O)O; Gly(N(CH2)3COOH) = O=C(O)CCCNCC(=O)O; X1 = CCCCCCC[C@H](N[*:1])C(=O)[*:2]; NMeF = CN[C@@H](Cc1ccccc1)C(=O)O; NMeDap = CN[C@@H](CN)C(=O)O; NMeA = CN[C@@H](C)C(=O)O; Sar = CNCC(=O)O

A word on the IC50: it is the midpoint of a concentration-inhibition curve. For the molecule `CC[C@H](C)[C@@H]1NC(=O)[C@H](Cc2ccccc2)N(C)C(=O)[C@H](Cc2ccc(O)cc2)NC(=O)[C@H](Cc2c[nH]c3ccccc23)NC(=O)[C@H](C)NC(=O)CN(CCCC(=O)O)C(=O)CSC[C@H](C(=O)O)NC(=O)[C@H](Cc2ccccc2)N(C)C(=O)[C@H](C)N(C)C(=O)[C@H](CC(C)C)NC(=O)[C@H](Cc2ccccc2)N(C)C(=O)[C@H](CCCNC(=N)N)NC(=O)[C@H](Cc2ccc(C(=O)O)cc2)NC(=O)[C@H](Cc2ccc(O)cc2)NC(=O)CN(C)C1=O` [Myostatin_99_Variant_07] ({CH2CO}-[Gly(N(CH2)3COOH)]AWY[NMeF]I[Sar]Y[Phe(4-COOH)]R[NMeF]L[NMeA][NMeF][dC]-OH; thioether N-15), the IC50 on Myostatin [1] (Method A: Myostatin 10 ng/mL, read-out: IC50 (Luciferase) Myostatin HepG2) was 26.2 nM; on GDF-11 [3] (Method A: GDF-11 10 ng/mL, read-out: IC50 (Luciferase) GDF-11 HepG2), 1050 nM. Besides, in the data set with Myostatin [2], the Selectivity came to 40. Besides, the level at 24 h in data set [4] (setting [7]) is 232 ng/mL; in data set [4] (setting [8]) it was 283 ng/mL. The level at 48 h in data set [4] (setting [7]) is 55 ng/mL; in data set [4] (setting [8]) it was 190 ng/mL. For the same molecule, the level at 72 h in data set [4] (setting [7]) is 40 ng/mL; in data set [4] (setting [8]), 74 ng/mL. For the same molecule, the “time-course change in grip strength” value is “continuous increase in grip strength” in the data set with B10 mdx model mice (3 times a week, vs. PBS Vehicle group, Fig. 3) and “continuous increase in grip strength was observed” in data set [5] (vs. PBS (Fig. 3)). Also, the “time-course change in body weight” value in the data set with B10 mdx model mice (3 times a week, vs. Vehicle group, Fig. 4) is “body weight to continuously increase”; in data set [5] (vs. Vehicle (Fig. 4)), “cause the body weight to continuously increase”. The “Serum creatine kinase (CK) concentrations (mean ± SEM)” value in the data set on B10 mdx model mice (Day 35, Vehicle group 3,836 ± 754 IU/L) was 3,247 ± 558 IU/L.

As for `CCCCCCC[C@@H]1NC(=O)[C@H](Cc2ccccc2)N(C)C(=O)[C@H](CCCNC(=N)N)NC(=O)[C@H](Cc2ccc(C(=O)O)cc2)NC(=O)[C@H](Cc2cccc(OCC(=O)O)c2)NC(=O)[C@H]2CCCN2C(=O)[C@H]([C@@H](C)CC)NC(=O)[C@H](Cc2ccccc2)N(C)C(=O)[C@H](Cc2ccc(O)cc2)NC(=O)[C@H](Cc2cn(-c3ccc(C(=O)O)cc3)c3cc(O)ccc23)NC(=O)[C@H](C)NC(=O)CN2CCC(=O)NC[C@@H](C(=O)N(C)[C@@H](Cc3ccccc3)C(=O)N[C@H](C)C(=O)N(C)[C@@H](C)C2=O)N(C)C1=O` [Myostatin_99_v489] (cyclo(A[Trp(6-OH,1-(4-HO2C-Ph))]Y[NMeF]I[dP][Phe(3-OCH2COOH)][Phe(4-COOH)]R[NMeF][X1][NMeDap][NMeF][dA][NMeA][N(CH2CH2CO)Gly]); lactam 12-16), the IC50 amounted to 0.12 nM against Myostatin [1] (HepG2, luciferase reporter, Evaluation Procedure (1), Method D) and 45.4 nM on GDF-11 [3] (HepG2, luciferase reporter, Evaluation Procedure (1), Method D, read-out: IC50 (Luciferase) GDP-11 HepG2). Moreover, the Selectivity with GDF-11 [6] is 365.6.
